For one compound, IC50 results are on record in patent publication US12458647B2, “Macrocyclic derivative and use thereof” (Guangzhou Joyo Pharmatech Co., Ltd., priority 2022, dated 2025).

The test system of one test is Capan-1 cells. The experiment in a line: In vitro cell proliferation experiment (5 days), Capan-1. The following applies: Capan-1, 5 days; read-out: Inhibitory Activity IC50. Format: cell-based. How it is done: (§1) RPMI 1640 medium, DMEM, Ham's F12 medium, F12K medium, IMDM and penicillin/streptomycin antibiotics were purchased from Gibco, fetal bovine serum was purchased from Hyclone, Envision multilabel plate reader (PerkinElmer). […]
(§2) The test compound was diluted by 5-fold to 8 concentrations with a pipette, i.e., from 2 mM to 25.6 nM, and replicate wells were set up for the experiment. […] Another cell plate was prepared, and the signal value was read as the maximum value (the maximum value in the following equation) on the day of dosing for data analysis.
(§3) 50 μL of cell viability chemiluminescent detection reagent was added to the cell plate and incubated at room temperature for 30 minutes to stabilize the luminescence signal. A multilabel plate reader was used for reading. […]

The next test has as its system HCT116 cells. The experiment in a line: In vitro cell proliferation experiment (5 days), HCT116. Type of test: cell-based. Particulars: HCT116, 5 days; read-out: Inhibitory Activity IC50. How it is done: as §1, §2, §3

By IC50 is commonly meant the concentration that gives 50% inhibition.

Take `CCn1c(-c2cc(N3CCN(C)CC3)cnc2C(C)OC)c2c3cc(ccc31)-c1csc(n1)CC(NC(=O)C1C(C)C1C)C(=O)N1NC(C(=O)OCC(C)(C)C2)C2CC1C2` (single isomer, unassigned) [Compound 6A]: the results for the IC50 in the test on Capan-1 cells and in the test on HCT116 cells were 2.5 nM and 5.5 nM, respectively.
